Results taken from US20070203091A1, “Methods and therapeutic compositions for improving liver, blood flow and skeletal muscle functions in advanced diseases and aging” (priority 2006, published 2007).

What was measured:
[1] = Voluntary (skeletal) muscle strength, hand grip strength, Phase I study; format: in vivo, human; conditions: for Skeletal Muscle Strength, Change from Baseline, Mean / Skeletal Muscle Strength, Change from Baseline, Median / Skeletal Muscle Strength, Observed Values, Mean / Skeletal Muscle Strength, Observed Values, Median: ITT
Protocol: Procedure for measuring voluntary (skeletal) muscle strength-hand grip strength • 1. This measurement will be performed in the standing position (without support) using the patients' dominant hand in the horizontal outstretched position of 90 degrees to the body. • 2. Measurements will be taken using a calibrated and well maintained hand-held commercially available dynamometer. • 3. All measurements that are performed during the treatment period will be taken prior to placement of intravenous cannula and prior to study treatment administration • 4. Patients will undertake the hand-grip strength maneuver after initial training—with encouragement from the observer to “do their best”. This will be performed ×3 with no more than 30 seconds between attempts. • 5. The maximal value of the three attempts will be recorded as the hand-grip strength on that day. • 6. The testing will be performed and documented by the same individual member of the research team (as often as is practically possible). • The dynamometer instrument will be to the greatest extent possible the same instrument for any one patient throughout the study and will be initially calibrated and checked for accuracy prior to the study and thereafter on a regular basis. ATP Therapeutics, Inc.

[2] = Cachexia markers Part II: blood TNF-alpha, Interleukin-6, Phase I study; format: in vivo, human
Source text: TNF-alpha is an acknowledged independent negative prognostic factor of morbidity and mortality in the elderly (30).

[3] = Karnofsky Performance Status, Phase I study; format: in vivo, human; conditions: for Karnofsky Performance Status, Change from Baseline, Mean / Karnofsky Performance Status, Change from Baseline, Median / Karnofsky Performance Status, Observed Values, Mean / Karnofsky Performance Status, Observed Values, Median: ITT
Source text: The present patient population was clinically deteriorating rapidly with four of the fifteen patients not meeting the protocol inclusion criteria and being granted exemptions (page 15-18). An amendment to the protocol had to be sought because Karnofsky Performance Status of some patients dropped between the screening date and the first pre-infusion date. Considering the clinical status of the present patient population at the start of the trial along with Karnofsky Performance Score being a surrogate end-point for Quality of Life in advanced, refractory, terminal cancers, these findings support claims reciting benefits to quality of life by claimed treatment in a human host in need thereof.

[4] = Quality of life (EORTC QLQ-C30), appetite, energy and body weight, Phase I study; format: in vivo, human
Source text: Nine qualified patients have been enrolled in the study as of Sep. 1, 2001; seven of which received the first 3 cycles of the study drug and are therefore evaluable for the primary endpoint. Two of the seven evaluable patients had advanced prostate cancer with bone metastases and one each had advanced mesothelioma, metastatic breast cancer, metastatic melanoma, metastatic colon cancer and renal cell carcinoma.
Three of these parameters are EORTC QLQ-C30 patient-oriented questionnaire, skeletal (voluntary) muscle strength and percent body fat. […] The screening value is used as the patients' baseline. In some patients a deterioration in overall quality of life between screening and week 1, prior to the administration of study drug has been observed. […] A more accurate baseline for evaluation of the efficacy of ATP treatment on cancer cachexia and quality of life parameters is therefore recommended.

[5] = cited from earlier work
[6] = cited from earlier work; remark: listed apart in the source
[7] = Week <1 (Screening), baseline, N=15
[8] = Week 1 (Infusion 1), baseline, N=15
[9] = patients 502-505, week 1 (pre-dose) to week 13 (follow-up)
[10] = Patient 504, while on ATP treatment
[11] = patients 502-505, week 13 follow-up
[12] = low levels of ATP administered directly into the duodenum

With `Nc1ncnc2c1ncn2[C@@H]1O[C@H](COP(=O)(O)OP(=O)(O)OP(=O)(O)O)[C@@H](O)[C@H]1O` [ATP, adenosine 5′-triphosphate] the “Skeletal Muscle Strength, Change from Baseline, Mean” value ([1]; Week 1 (Infusion 1), N=6) was -1.7 kg, the “Skeletal Muscle Strength, Change from Baseline, Median” value ([1]; Week 1 (Infusion 1), N=6) was -1.5 kg and the “Skeletal Muscle Strength, Observed Values, Mean” value ([1]; Week 1 (Infusion 1), N=6) was 38.5 kg. For the same compound, the “Skeletal Muscle Strength, Observed Values, Median” value ([1]; Week 1 (Infusion 1), N=6) was 35.0 kg, the “Skeletal Muscle Strength, Change from Baseline, Mean” value ([1]; Week 2 (Infusion 2), N=14) was -1.4 kg and the “Skeletal Muscle Strength, Change from Baseline, Median” value ([1]; Week 2 (Infusion 2), N=14) was -2.0 kg. The “Skeletal Muscle Strength, Observed Values, Mean” value ([1]; Week 2 (Infusion 2), N=14) was 34.6 kg, the “Skeletal Muscle Strength, Observed Values, Median” value ([1]; Week 2 (Infusion 2), N=14) was 34.0 kg and the “Skeletal Muscle Strength, Change from Baseline, Mean” value ([1]; Week 4 (Infusion 4), N=11) was -4.1 kg. The “Skeletal Muscle Strength, Change from Baseline, Median” value ([1]; Week 4 (Infusion 4), N=11) was -2.0 kg, the “Skeletal Muscle Strength, Observed Values, Mean” value ([1]; Week 4 (Infusion 4), N=11) was 31.5 kg and the “Skeletal Muscle Strength, Observed Values, Median” value ([1]; Week 4 (Infusion 4), N=11) was 32.0 kg. For the same compound, the “Skeletal Muscle Strength, Change from Baseline, Mean” value ([1]; Week 8 (Infusion 8), N=7) was -2.4 kg, the “Skeletal Muscle Strength, Change from Baseline, Median” value ([1]; Week 8 (Infusion 8), N=7) was -2.0 kg and the “Skeletal Muscle Strength, Observed Values, Mean” value ([1]; Week 8 (Infusion 8), N=7) was 30.0 kg. The “Skeletal Muscle Strength, Observed Values, Median” value ([1]; Week 8 (Infusion 8), N=7) was 26.0 kg, the “Skeletal Muscle Strength, Change from Baseline, Mean” value ([1]; Week 10 (Follow-up), N=6) was 1.8 kg and the “Skeletal Muscle Strength, Change from Baseline, Median” value ([1]; Week 10 (Follow-up), N=6) was -3.0 kg. For the same compound, the “Skeletal Muscle Strength, Observed Values, Mean” value ([1]; Week 10 (Follow-up), N=6) was 33.7 kg, the “Skeletal Muscle Strength, Observed Values, Median” value ([1]; Week 10 (Follow-up), N=6) was 30.0 kg and the “Skeletal Muscle Strength, Change from Baseline, Mean” value ([1]; Week 13 (follow-up), N=4) was 6.3 kg. For the same compound, the “Skeletal Muscle Strength, Change from Baseline, Median” value ([1]; Week 13 (follow-up), N=4) was -1.0 kg, the “Skeletal Muscle Strength, Observed Values, Mean” value ([1]; Week 13 (follow-up), N=4) was 32.5 kg and the “Skeletal Muscle Strength, Observed Values, Median” value ([1]; Week 13 (follow-up), N=4) was 26.0 kg. For the same compound, the “Skeletal Muscle Strength, Change from Baseline, Mean” value [1, 7] was 0.0 kg, the “Skeletal Muscle Strength, Change from Baseline, Median” value [1, 7] was 0.0 kg and the “Skeletal Muscle Strength, Observed Values, Mean” value [1, 7] was 35.1 kg. The “Skeletal Muscle Strength, Observed Values, Median” value [1, 7] was 35.0 kg, the skeletal muscle strength ([1]; beginning at week 8 and up to week 13) was “stabilize and improve” and the “Skeletal Muscle Strength (voluntary)” value ([1]; patients 502-505, screening (week <1) to week 8 (last infusion cycle)) was “Small increase”. For the same compound, the Interleukin-6 levels ([2]; upon ATP treatment) was “not stabilized”, the “levels of blood tumor necrosis factor-alpha (TNF-alpha)” value ([2]; week 13) was “stabilize” and the “Karnofsky Performance Status” value ([3]; ITT patient population) was “stabilize”. For the same compound, the “Karnofsky Performance Status, Change from Baseline, Mean” value [3, 8] was 0.0%, the “Karnofsky Performance Status, Change from Baseline, Median” value [3, 8] was 0.0% and the “Karnofsky Performance Status, Observed Values, Mean” value [3, 8] was 78.0%. For the same compound, the “Karnofsky Performance Status, Observed Values, Median” value [3, 8] was 80.00%, the “Karnofsky Performance Status, Change from Baseline, Mean” value ([3]; Week 2 (Infusion 2), N=14) was −2.1% and the “Karnofsky Performance Status, Change from Baseline, Median” value ([3]; Week 2 (Infusion 2), N=14) was 0.0%. The “Karnofsky Performance Status, Observed Values, Mean” value ([3]; Week 2 (Infusion 2), N=14) was 77.1%, the “Karnofsky Performance Status, Observed Values, Median” value ([3]; Week 2 (Infusion 2), N=14) was 75.0% and the “Karnofsky Performance Status, Change from Baseline, Mean” value ([3]; Week 3 (Infusion 3), N=13) was −2.3%. The “Karnofsky Performance Status, Change from Baseline, Median” value ([3]; Week 3 (Infusion 3), N=13) was 0.0%, the “Karnofsky Performance Status, Observed Values, Mean” value ([3]; Week 3 (Infusion 3), N=13) was 76.9% and the “Karnofsky Performance Status, Observed Values, Median” value ([3]; Week 3 (Infusion 3), N=13) was 80.0%. The “Karnofsky Performance Status, Change from Baseline, Mean” value ([3]; Week 4 (Infusion 4), N=11) was −0.9%, the “Karnofsky Performance Status, Change from Baseline, Median” value ([3]; Week 4 (Infusion 4), N=11) was 0.0% and the “Karnofsky Performance Status, Observed Values, Mean” value ([3]; Week 4 (Infusion 4), N=11) was 78.2%. For the same compound, the “Karnofsky Performance Status, Observed Values, Median” value ([3]; Week 4 (Infusion 4), N=11) was 80.0%, the “Karnofsky Performance Status, Change from Baseline, Mean” value ([3]; Week 5 (Infusion 5), N=10) was −7.0% and the “Karnofsky Performance Status, Change from Baseline, Median” value ([3]; Week 5 (Infusion 5), N=10) was 0.0%. The “Karnofsky Performance Status, Observed Values, Mean” value ([3]; Week 5 (Infusion 5), N=10) was 71.0%, the “Karnofsky Performance Status, Observed Values, Median” value ([3]; Week 5 (Infusion 5), N=10) was 75.0% and the “Karnofsky Performance Status, Change from Baseline, Mean” value ([3]; Week 6 (Infusion 6), N=9) was −4.4%. The “Karnofsky Performance Status, Change from Baseline, Median” value ([3]; Week 6 (Infusion 6), N=9) was 0.0%, the “Karnofsky Performance Status, Observed Values, Mean” value ([3]; Week 6 (Infusion 6), N=9) was 74.4% and the “Karnofsky Performance Status, Observed Values, Median” value ([3]; Week 6 (Infusion 6), N=9) was 80.0%. For the same compound, the “Karnofsky Performance Status, Change from Baseline, Mean” value ([3]; Week 7 (Infusion 7), N=7) was −4.3%, the “Karnofsky Performance Status, Change from Baseline, Median” value ([3]; Week 7 (Infusion 7), N=7) was 0.0% and the “Karnofsky Performance Status, Observed Values, Mean” value ([3]; Week 7 (Infusion 7), N=7) was 72.9%. The “Karnofsky Performance Status, Observed Values, Median” value ([3]; Week 7 (Infusion 7), N=7) was 70.0%, the “Karnofsky Performance Status, Change from Baseline, Mean” value ([3]; Week 8 (Infusion 8), N=7) was −5.7% and the “Karnofsky Performance Status, Change from Baseline, Median” value ([3]; Week 8 (Infusion 8), N=7) was −10.0%. For the same compound, the “Karnofsky Performance Status, Observed Values, Mean” value ([3]; Week 8 (Infusion 8), N=7) was 71.4%, the “Karnofsky Performance Status, Observed Values, Median” value ([3]; Week 8 (Infusion 8), N=7) was 70.0% and the “Karnofsky Performance Status, Change from Baseline, Mean” value ([3]; Week 10 (Follow-up), N=6) was −5.0%. For the same compound, the “Karnofsky Performance Status, Change from Baseline, Median” value ([3]; Week 10 (Follow-up), N=6) was −5.0%, the “Karnofsky Performance Status, Observed Values, Mean” value ([3]; Week 10 (Follow-up), N=6) was 73.3% and the “Karnofsky Performance Status, Observed Values, Median” value ([3]; Week 10 (Follow-up), N=6) was 70.0%. For the same compound, the “Karnofsky Performance Status, Change from Baseline, Mean” value ([3]; Week 13 (Follow-up), N=5) was −4.0%, the “Karnofsky Performance Status, Change from Baseline, Median” value ([3]; Week 13 (Follow-up), N=5) was 0.0% and the “Karnofsky Performance Status, Observed Values, Mean” value ([3]; Week 13 (Follow-up), N=5) was 76.0%. The “Karnofsky Performance Status, Observed Values, Median” value ([3]; Week 13 (Follow-up), N=5) was 80.0%, the “Karnofsky Performance Status” value [3, 9] was “Small increases” and the “patient's comment on energy / appetite” value ([4]; Patient 502, during the treatment period) was “improved energy levels”. The “patient's comment on energy / appetite” value ([4]; Patient 503, during ATP therapy) was “improved energy and appetite”, the “patient's comment on energy / appetite” value [4, 10] was “increased energy and appetite” and the weight [4, 10] was “increasing”. The “patient's comment on energy / appetite” value ([4]; Patient 505, while on study) was “improved energy and appetite”, the “patient's comment on energy / appetite” value ([4]; Patient 506) was “more energy and improved appetite” and the “Other Endpoints (patient's comment on energy)” value ([4]; Patient 507, while on ATP Rx) was “Felt more energy”. For the same compound, the “patient's comment on energy / activity” value ([4]; Patient 509) was “subjective improvement in energy and activity”, the “subjective comments of several patients on appetite and energy” value ([4]; during the study, first nine patients) was “improved appetite and energy” and the “Global Health Status of the QOL EORTC QLQ-C30” value ([4]; patients 502-505, screening (week <1) to follow-up (week 10)) was “Increases”. The appetite loss ([4]; patients 502-505, screening to week 10 (follow-up)) was “Decreases”, the body weight [4, 9] was “Stabilization” and the “Global Health Status of the QOL EORTC QLQ-C30” value [4, 11] was “decline”. For the same compound, the appetite loss [4, 11] was “return to screening baseline”, the “arterial oxygen pressure (PaO2)” value ([5]; after the administration of ATP into the duodenum) was “increase” and the Pulmonary Vascular Resistance [5, 12] was “reductions”. For the same compound, the “arterial blood pressure or heart rate” value [5, 12] was “No effects”, the blood flow [5, 12] was “increases” and the peripheral vascular resistance [5, 12] was “reductions”. For the same compound, the “increase in vascular diameter” value ([6]; blood plasma ATP about 1 microM) was 8%, the “increase in blood flow” value ([6]; blood plasma ATP about 1 microM, corresponding to the increase in vascular diameter) was ≥ 17% and the site of vasodilation ([6]; intraluminal, physiological concentrations) was “not only local vasodilation, but also vasodilation at sites upstream from the site of its application”.
